Laboratory results taken from PubChem BioAssay (NCI).
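All cell lines were grown in 96-well plates and treated with compound for 48 hours. GI50 is the concentration that inhibits growth by half. TGI denotes the concentration required for complete inhibition of growth.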

Assays:
Assay in all cases: NCI-60 cell line screen, 48 h
[1] = system: BT-549 breast
[2] = system: KM12 colon
[3] = system: T-47D breast
[4] = system: NCI-H460 lung
[5] = system: NCI-H522 lung
[6] = system: SK-MEL-5 melanoma
[7] = system: RPMI-8226 leukemia
[8] = system: SN12C renal
[9] = system: HCC-2998 colon
[10] = system: HL-60(TB) leukemia

Compound	TGI [1] [µM]	TGI [2] [µM]	TGI [3] [µM]	TGI [4] [µM]	TGI [5] [µM]	TGI [6] [µM]	TGI [7] [µM]	TGI [8] [µM]	TGI [9] [µM]	GI50 [1] [µM]	GI50 [2] [µM]	GI50 [3] [µM]	GI50 [4] [µM]	GI50 [6] [µM]	GI50 [10] [µM]	TGI [10] [µM]	GI50 [7] [µM]	GI50 [9] [µM]	GI50 [8] [µM]	GI50 [5] [µM]
CCc1ncnc2cc(OCC3CO3)c(OC)cc12 (stereo not drawn)	15.1	49.3	> 100	43.8	9.94	21.9	5.38	16.7	–	–	–	–	–	–	–	–	–	–	–	–
O=C1c2c(c3c4ccccc4[nH]c3c3[nH]c4ccccc4c23)C(=O)N1Cc1ccccc1	–	9.47	–	13.5	4.72	3.56	6.74	5.6	16.3	–	–	–	–	–	–	–	–	–	–	–
C[C@]12CC[C@@H]3c4ccc(O)cc4CC[C@H]3[C@@H]1CC[C@@H]2NS(=O)(=O)c1ccc2ccccc2c1	8.59	4.06	16.3	4.97	–	3.36	9.94	4.25	15.5	2.92	1.92	3.9	2.21	1.78	3.31	13.7	2.93	4.24	1.94	–
CCN(CC)CCC(=O)/C=C/c1ccc(C)cc1	–	7.98	–	38.3	–	30.2	> 100	24.8	32.6	–	–	–	–	–	–	33.6	–	–	–	–
Cn1c(C(C)(C)OC(=O)Oc2ccccc2)cnc1[N+](=O)[O-]	> 100	> 100	> 100	> 100	> 100	> 100	77.1	> 100	–	–	–	–	–	–	–	> 100	–	–	–	–
COc1ccc2[nH]c(O)c(/C=c3/ccc4c(c3)N=C(c3ccc(F)cc3)N=4)c2c1	4.75	77.9	4.99	12.3	8.09	–	> 100	> 100	> 100	1.75	4.54	2.01	3.35	–	28.3	> 100	3.01	> 100	4.88	2.79
Cc1cn2c(/C=N/N=C(N)N)c(-c3ccsc3)nc2s1	29.5	29.9	7.86	> 100	> 100	5.19	16	10.9	5.33	15	6.6	2.7	5.29	2.71	–	–	3.69	2.34	2.27	28.4
COC(=O)C(=O)C(CC(=O)Nc1cccc(C(F)(F)F)c1)C(=O)OC (stereo not drawn)	–	–	–	> 100	> 100	> 100	> 100	> 100	> 100	–	–	–	–	–	–	> 100	–	–	–	–
O=C1CCC2(c3ccccc3)Nc3ccc(Cl)cc3N12 (stereo not drawn)	–	> 100	–	> 100	> 100	> 100	> 100	> 100	> 100	–	–	–	–	–	–	> 100	–	–	–	–
Cc1cc(NS(=O)(=O)c2ccc(NC(=O)COC(=O)c3cccc4c(=O)c5ccccc5[nH]c34)cc2)no1	–	> 100	–	> 100	> 100	> 100	> 100	> 100	> 100	–	–	–	–	–	–	> 100	–	–	–	–
